Source: patent US20160050929A1, “METHODS OF CONTROLLING NEONICOTINOID RESISTANT PESTS” (SYNGENTA PARTICIPATIONS AG, priority 2013, published 2016)

Tested on: Orius laevigatus
Assay: Safety to beneficial species: test on Orius laevigatus
Format: in vivo
Conditions: Orius laevigatus adults; for Corrected Mortality (%) 2 DAI: 2 days after infestation; for Corrected Mortality (%) 4 DAI: 4 days after infestation
Protocol: Phaseolus vulgaris var. Fulvio (french bean) plants were reduced to one leaf. With the leaves held in a horizontal position, a track sprayer was used to treat the plants at a rate corresponding to […]. Once dry, leaf discs were collected from the plants and placed treated side up in petri dishes containing 1% water agar.
A paper triangle was added for shelter, and a suitable amount of Ephestia eggs were added as a food supply. Five (5) Orius laevigatus (predatory bug, Syngenta Bioline) adults were added and the dishes closed with a cotton filter and perforated plastic lid. The dishes were incubated in a climate chamber at 25° C., 75% relative humidity, 16:8 h light/dark regime.
Six replicates were provided for each treatment and concentration level. The number of living and dead Orius laevigatus were counted two and four days after infestation (DAI). At the day two evaluation the food supply was replenished.

SMILES | Corrected Mortality (%) 2 DAI (rate 50 ppm) [%] | Corrected Mortality (%) 4 DAI (rate 50 ppm) [%] | Corrected Mortality (%) 2 DAI (rate 100 ppm) [%] | Corrected Mortality (%) 4 DAI (rate 100 ppm) [%] | Corrected Mortality (%) 2 DAI (rate 200 ppm) [%] | Corrected Mortality (%) 4 DAI (rate 200 ppm) [%]
C#CCN1[C@@H]2CC[C@H]1C[C@](C#N)(c1cncc(C#C)c1)C2 [Compound 1.070] | 0 | 0 | 0 | 0 | 0 | 0
O=[N+]([O-])NC1=NCCN1Cc1ccc(Cl)nc1 [Imidacloprid, imidacloprid] | 11 | 30 | 43 | 65 | 75 | 100
